Key:
[1] = test system: HIV; assay: HIV RNA level by PCR in HIV/HCV infected patient dosed I.V. with BrEA; format: in vivo; settings: predosing 5.2
Procedure: A patient infected with HIV and HCV was dosed I.V. with BrEA for 3 consecutive days using a formulation that contained 20 mg/mL BrEA in 45% w/v hydroxypropyl-β-cyclodextrin and saline. Four mL of the formulation (80 mg BrEA) was administered to the patient every 4 hours during the 3 day treatment period. The patient's predosing HCV level was 6.5 Log10 as measured by PCR and the HCV level was 6.2 Log10 on the first day of dosing, 5.5 Log10 on the 3rd day of dosing and 4.9 Log10 three days after the last dose was administered. HIV RNA levels as measured by PCR was 5.2 Log10 (predosing), 5.8 Log10 (first day), 5.9 Log10 (third day) and 5.4 Log10 (day 6). The NK cell counts (cells/mm^3) were 28, 41 and 38 at predosing, day 0 and day 3.

[2] = test system: HIV-1 viral RNA; assay: Human HIV clinical protocol: viral load (bDNA); format: in vivo; settings: after three 5-day courses of intermittent dosing over 153 days
Procedure: Otherwise untreated patients with CD4 counts of ≧200/μL and HIV-1 viral RNA between 5,000 and 1,000,000 copies/mL (branched-DNA, version 3.0, Bayer, Tarrytown, N.Y.) provided informed consent and were enrolled into a Phase I/II dose-escalation study of the safety and efficacy of intramuscular injections of BrEA. The protocol was conducted in South Africa. In the first cohort, four patients received an initial injection of 1 mL (50 mg), followed by a safety and pharmocokinetic study for seven days, and then received five daily injections of 1 mL (50 mg). The second cohort of 8 patients was randomized in a 1:2 ratio to receive either 50 mg (1 mL) or 100 mg (2 mL) on the same schedule. […]
CD4 counts were assessed using a FACScount (BDIS), and viral loads were measured using the bDNA assay (Bayer). […]
Statistical analysis of changes in surface phenotypes, hematological, and viral parameters were performed by calculating the area under the curve (AUC) of the percentage difference from baselines (phenotype), percentage difference from the mean of screen and baseline values (hematology), or log10 change from the mean of screen and baseline values (plasma viral RNA) for individual patients. AUC were calculated using the actual number of days between analysis visits for each patient. […]

[3] = test system: blood cell counts; assay: Enhancement of hemopoiesis in a human HIV patient; format: in vivo
Procedure: A human patient infected with the HIV virus was treated with 16α-bromoepiandrosterone (“BrEA”), using a physiological saline formulation containing 10 mg/mL of BrEA in solution, 36% w/v hydroxypropyl-β-cyclodextrin and 20 mg/mL of micronized BrEA in suspension. The patient received two courses of treatment. The first course consisted of subcutaneous injection once per day of 80 mg of BrEA for 10 days. The second course of treatment commenced 74 days later and used the same formulation, except that deuterium oxide replaced water in the formulation. The second treatment course consisted of subcutaneous injection once per day of 80 mg of BrEA for 15 days. The patient's blood parameters were obtained at the start and at the end of each course of treatment.

[4] = test system: CD4+ memory T cell 1 (MT1) and memory T cell 2 (MT2) cells; assay: MT1:MT2 memory T cell ratio in patients after 5 day i.m. BrEA; format: in vivo, human
Procedure: In a separate clinical trial using 100 mg of BrEA delivered to patients once per day for 5 consecutive days by intramuscular injection, several patients were evaluated for changes in the ratio of CD4^+ memory T cell 1 cells (intracellular IFNγ^+ CD45RA^− CD62L^− CD11a^bright) or MT1 cells to memory T cell 2 cells (intracellular IL-4^+ CD45RA^− CD62L^+ CD11a^dim) or MT2 cells. MT1 cells mediate or facilitate Th1 immune responses and MT2 cells mediate or facilitate Th2 immune responses. An increase in the MT1:MT2 ratio indicates an enhanced Th1 immune response or immune status. See, e.g., D. K. Mitra et al., International Immunology 1999 11:1801-1810. […] The maximum observed increase was about 700% in one patient at 10 days after the last dose of BrEA was administered. The increase usually persisted for more than 10 days after the last dose of BrEA was administered.

With `C[C@]12CC[C@H](O)C[C@@H]1CC[C@@H]1[C@@H]2CC[C@]2(C)C(=O)[C@H](Br)C[C@@H]12` [BrEA, 16α-bromo-3β-hydroxy-5α-androstane-17-one] as the compound, how does the “HIV RNA levels by PCR” value ([1]; day 6) read?
Its value is 5.4 Log10.

What about the “HIV RNA levels by PCR” value ([1]; first day) of the same compound?
The value was 5.8 Log10.

And the “HIV RNA levels by PCR” value ([1]; third day)?
The value was 5.9 Log10.

And the “change in viral load” value [2]?
The value was “no overall decrease in viral load”.

What about the WBC ([3]; 1st Course end (80 mg s.c. daily 10 days), start 2.38) of the same compound?
The WBC was 2.47e+09 L⁻¹.

What about the basophils ([3]; 1st Course end, start 0.02) of the same compound?
The basophils was 1e+07 L⁻¹.

What about the monocytes ([3]; 1st Course end, start 0.35) of the same compound?
The monocytes was 3e+08 L⁻¹.

And the neutrophils ([3]; 1st Course end, start 0.92)?
Its neutrophils is 8e+08 L⁻¹.

What about the “CD4+ T cells” value ([3]; 1st Course end, start 93) of the same compound?
The value was 116 mm^−3.

What about the “CD16+/56+ NK cells” value ([3]; 1st Course end, start 186) of the same compound?
Its value is 348 mm^−3.

What about the T suppressor cells ([3]; 1st Course end, start 344) of the same compound?
Its T suppressor cells is 452 mm^−3.

And the WBC ([3]; 2nd Course end (80 mg s.c. daily 15 days), start 3.57)?
Its WBC is 5.66e+09 L⁻¹.

And the basophils ([3]; 2nd Course end, start 0.01)?
Its basophils is 6e+07 L⁻¹.

And the monocytes ([3]; 2nd Course end, start 0.34)?
The monocytes was 5.4e+08 L⁻¹.

What about the neutrophils ([3]; 2nd Course end, start 2.02) of the same compound?
The neutrophils was 3.6e+09 L⁻¹.

What about the “CD4+ T cells” value ([3]; 2nd Course end, start 113) of the same compound?
Its value is 125 mm^−3.

What about the “CD16+/56+ NK cells” value ([3]; 2nd Course end, start 144) of the same compound?
The value was 425 mm^−3.

And the T suppressor cells ([3]; 2nd Course end, start 351)?
The T suppressor cells was 513 mm^−3.

And the “tested patients showing a transient increase in the MT1:MT2 ratio” value ([4]; 100 mg i.m. once per day for 5 consecutive days)?
Its value is 7/7.

And the “maximum observed increase in the MT1:MT2 ratio” value ([4]; one patient, 10 days after the last dose)?
The value was “about 700%”.
